# Results published in PMC2665027 (Biochemistry, 2009).
# Where a chain is given by its changes, count along the chain named. In names and notes the source's numbering stands. Several values for one entry are separate records, joined by “and”; a condition that tells them apart may be missing. Identical values can stand only once. Like-named read-outs stand apart in the source and are kept apart here.
# B1: D183A rat arginase I (Rattus norvegicus; D183A) (protein)
# chain: MSSKPKPIEIIGAPFSKGQPRGGVEKGPAALRKAGLVEKLKETEYNVRDHGDLAFVDVPNDSPFQIVKNPRSVGKANEQLAAVVAETQKNGTISVVLGGDHSMAIGSISGHARVHPDLCVIWVDAHTDINTPLTTSSGNLHGQPVAFLLKELKGKFPDVPGFSWVTPCISAKDIVYIGLRDVAPGEHYIIKTLGIKYFSMTEVDKLGIGKVMEETFSYLLGRKKRPIHLSFDVDGLDPVFTPATGTPVVGGLSYREGLYITEEIYKTGLLSGLDIMEVNPTLGKTPEEVTRTVNTAVALTLSCFGTKREGNHKPETDYLKPPK
# B2: N130F rat arginase I (Rattus norvegicus; N130F) (protein)
# chain: B1 chain with N130F, A183D
# B3: N130A rat arginase I (Rattus norvegicus; N130A) (protein)
# chain: B1 chain with N130A, A183D
# B4: T135S rat arginase I (Rattus norvegicus; T135S) (protein)
# chain: B1 chain with T135S, A183D
# B5: N130Y rat arginase I (Rattus norvegicus; N130Y) (protein)
# chain: B1 chain with N130Y, A183D
# B6: T135A rat arginase I (Rattus norvegicus; T135A) (protein)
# chain: B1 chain with T135A, A183D
# Columns and labels:
# rat arginase I [1] = conditions: ref [26], cited from earlier work; for diminished catalytic activity based on kcat/KM relative to L-arginine / increased KM value relative to L-arginine: alternative substrate
# rat arginase I [2] = conditions: deletion of the carboxylate group of ABH; ref [28]; cited from earlier work
# D183A human arginase I [3] = biological target: T1, D183A human arginase I (Homo sapiens, UniProt P05089, D183A); assay: Isothermal titration calorimetry, D183A human arginase I; assay type: binding
# T1 sequence (P05089 1-322 D183A): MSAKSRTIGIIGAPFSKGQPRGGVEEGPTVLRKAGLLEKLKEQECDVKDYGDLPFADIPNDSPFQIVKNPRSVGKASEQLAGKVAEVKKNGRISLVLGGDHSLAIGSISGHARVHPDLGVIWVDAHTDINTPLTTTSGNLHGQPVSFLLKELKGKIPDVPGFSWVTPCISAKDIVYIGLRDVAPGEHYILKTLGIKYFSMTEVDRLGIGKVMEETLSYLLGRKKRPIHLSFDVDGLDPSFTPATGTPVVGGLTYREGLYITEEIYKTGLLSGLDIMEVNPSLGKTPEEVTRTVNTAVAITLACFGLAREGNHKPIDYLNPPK
# D183N human arginase I [4] = biological target: T2, D183N human arginase I (Homo sapiens, UniProt P05089, D183N); assay: Isothermal titration calorimetry, D183N human arginase I; assay type: binding
# T2 sequence (P05089 1-322 D183N): T1 sequence (P05089 1-322 D183A) with A183N
# [5] = biological target: wild-type human arginase I; conditions: isothermal titration calorimetry; ref [30] and [48]; cited from earlier work
# T135A rat arginase I = biological target: T3, T135A rat arginase I (Rattus norvegicus, UniProt P07824, T135A); assay: 14C-urea radioactive arginase assay, T135A rat arginase I; assay type: biochemical
# T3 sequence (P07824 1-323 T135A): B1 chain with T135A, A183D
# T135S rat arginase I = biological target: T4, T135S rat arginase I (Rattus norvegicus, UniProt P07824, T135S); assay type: biochemical
# T4 sequence (P07824 1-323 T135S): B1 chain with T135S, A183D
# N130A rat arginase I = biological target: T5, N130A rat arginase I (Rattus norvegicus, UniProt P07824, N130A); assay: 14C-urea radioactive arginase assay, N130A rat arginase I; assay type: biochemical
# T5 sequence (P07824 1-323 N130A): B1 chain with N130A, A183D
# wild-type rat arginase I = biological target: T6, wild-type rat arginase I (Rattus norvegicus, UniProt P07824); conditions: ref [14], cited from earlier work
# T6 sequence (P07824 1-323): B1 chain with A183D
# D183N human arginase I [6] = biological target: T2, D183N human arginase I; assay: 14C-urea radioactive arginase assay, D183N human arginase I; assay type: biochemical; conditions: substrate L-arginine; pH 9.0, room temperature
# D183A human arginase I [7] = biological target: T1, D183A human arginase I; conditions: substrate L-arginine; pH 9.0, room temperature
# [8] = tested on: wild-type human arginase I; conditions: substrate L-arginine; ref [30] and [48]; cited from earlier work
# [9] = tested on: proclavaminic acid amidinohydrolase; conditions: ref [54]; cited from earlier work
# [10] = substrate: N=C(N)NCCC[C@H](N)C(=O)O; assay: 14C-urea radioactive arginase assay, D183A rat arginase I; assay type: biochemical; conditions: other: substrate L-arginine, pH 9.0, room temperature
# [11] = substrate: N=C(N)NCCC[C@H](N)C(=O)O; assay: 14C-urea radioactive arginase assay, N130F rat arginase I; assay type: biochemical; conditions: other: substrate L-arginine, pH 9.0, room temperature
# [12] = substrate: N=C(N)NCCC[C@H](N)C(=O)O; assay: 14C-urea radioactive arginase assay, N130A rat arginase I; assay type: biochemical; conditions: other: substrate L-arginine, pH 9.0, room temperature
# [13] = substrate: N=C(N)NCCC[C@H](N)C(=O)O; assay type: biochemical, rat; conditions: other: substrate L-arginine, pH 9.0, room temperature
# [14] = substrate: N=C(N)NCCC[C@H](N)C(=O)O; assay: 14C-urea radioactive arginase assay, N130Y rat arginase I; assay type: biochemical; conditions: other: substrate L-arginine, pH 9.0, room temperature
# [15] = substrate: N=C(N)NCCC[C@H](N)C(=O)O; assay: 14C-urea radioactive arginase assay, T135A rat arginase I; assay type: biochemical; conditions: other: substrate L-arginine, pH 9.0, room temperature
# [16] = progress curves in the presence of 30 µM BEC linear with time
molecule,measurement,setting,value
NC(N)=NCCC[C@@H](N)C(=O)O [D-arginine],substrate activity,rat arginase I [1],not a substrate
NCCCCN=C(N)N [agmatine],diminished catalytic activity based on kcat/KM relative to L-arginine,rat arginase I [1],"54,000 fold"
same,increased KM value relative to L-arginine,rat arginase I [1],11 fold
NCCCCCB(O)O [descarboxy-ABH],loss of inhibitory activity relative to ABH,rat arginase I [2],1800 fold
"N[C@@H](CCCCB(O)O)C(=O)O [ABH, 2(S)-amino-6-boronohexanoic acid]",Kd,D183A human arginase I [3],7000 nM
same,inhibitor binding affinity weakened relative to wild-type,"D183A human arginase I [3]; D183A vs wild-type human arginase I, calorimetric Kd",~ 1400 fold and 1400 fold
same,Kd,D183N human arginase I [4],147 nM
same,inhibitor binding affinity weakened relative to wild-type,"D183N human arginase I [4]; D183N vs wild-type human arginase I, calorimetric Kd",29 fold
same,Kd,[5],5 nM
NC(N)=NCCC[C@H](O)C(=O)O [L-argininic acid],diminished catalytic activity based on kcat/KM relative to L-arginine,rat arginase I [1],"3,200 fold"
same,increased KM value relative to L-arginine,rat arginase I [1],9 fold
"N[C@@H](CSCCB(O)O)C(=O)O [BEC, S-(2-boronoethyl)-L-cysteine]",Ki,T135A rat arginase I,4500 nM
same,inhibitor binding behaviour,T135A rat arginase I; [16],does not exhibit slow-binding behavior
same,Ki,T135S rat arginase I,125 nM
same,koff,T135S rat arginase I,0.00155 s⁻¹
same,kon,T135S rat arginase I,12400 M⁻¹ s⁻¹
same,inhibitor binding behaviour,T135S rat arginase I; non-linear progress curves in the presence of BEC,slow-binding behavior
same,Ki,N130A rat arginase I,13000 nM
same,diminished enzyme-inhibitor affinity relative to wild-type,N130A rat arginase I; N130A vs wild-type rat arginase I,~ 30 fold
same,inhibitor binding behaviour,N130A rat arginase I; [16],no longer a slow-binding inhibitor
same,inhibitor binding behaviour,wild-type rat arginase I,slow-binding inhibitor
same,Ki,"wild-type rat arginase I; slow-binding kinetics observed, Ki = koff/kon",400 nM
N=C(N)NCCC[C@H](N)C(=O)O [L-arginine],Km,D183N human arginase I [6],40 mM
same,kcat,D183N human arginase I [6],167 s⁻¹
same,kcat,D183A human arginase I [7],68 s⁻¹
same,Km,[8],1.5 mM
same,kcat,[8],190 s⁻¹
same,substrate acceptance,[9],does not accept L-arginine as a substrate
B1,Km,[10],13.9 mM
same,kcat,[10],14.7 s⁻¹
same,kcat/Km,[10],1100 M⁻¹ s⁻¹
B2,Km,[11],19.3 mM
same,kcat,[11],4.8 s⁻¹
same,kcat/Km,[11],250 M⁻¹ s⁻¹
B3,Km,[12],50 mM
same,kcat,[12],220 s⁻¹
same,kcat/Km,[12],4400 M⁻¹ s⁻¹
B4,Km,[13],2.5 mM
same,kcat,[13],350 s⁻¹
same,kcat/Km,[13],140000 M⁻¹ s⁻¹
B5,Km,[14],21.4 mM
same,kcat,[14],17 s⁻¹
same,kcat/Km,[14],790 M⁻¹ s⁻¹
B6,Km,[15],13 mM
same,kcat,[15],260 s⁻¹
same,kcat/Km,[15],20000 M⁻¹ s⁻¹
